Measurements from patent US20250248970A1, “NOVEL SUBSTITUTED FLUORINATED N-PROPYL-PYRROLIDINE COMPOUNDS, PROCESSES FOR THEIR PREPARATION AND THERAPEUTIC USES THEREOF” (SANOFI, priority 2022, published 2025).

Biological target: T1, ERα (Homo sapiens, UniProt P03372)
T1 construct: host or cells: MCF7
T1 sequence (P03372 1-595): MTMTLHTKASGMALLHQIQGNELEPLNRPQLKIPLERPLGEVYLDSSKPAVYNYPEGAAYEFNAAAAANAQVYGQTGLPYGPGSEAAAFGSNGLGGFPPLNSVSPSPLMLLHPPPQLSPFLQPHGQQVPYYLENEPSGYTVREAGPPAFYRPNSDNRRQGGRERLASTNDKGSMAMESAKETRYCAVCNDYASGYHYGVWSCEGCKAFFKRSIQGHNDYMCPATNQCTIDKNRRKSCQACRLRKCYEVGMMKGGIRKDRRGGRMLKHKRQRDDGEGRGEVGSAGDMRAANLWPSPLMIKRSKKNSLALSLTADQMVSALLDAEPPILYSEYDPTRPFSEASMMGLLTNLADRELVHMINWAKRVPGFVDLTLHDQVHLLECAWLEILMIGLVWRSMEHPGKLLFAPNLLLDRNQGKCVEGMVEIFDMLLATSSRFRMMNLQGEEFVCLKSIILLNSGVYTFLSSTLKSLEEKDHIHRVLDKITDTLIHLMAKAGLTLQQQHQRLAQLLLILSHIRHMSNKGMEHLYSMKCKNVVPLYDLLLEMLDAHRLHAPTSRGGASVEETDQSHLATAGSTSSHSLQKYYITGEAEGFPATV
Test: Estrogen receptor degradation activity (breast cancer cell ERα in cell western assay)
Type: cell-based
Details: MCF7 cells, 0.3 μM, 4 hours, % of ERα levels decrease relative to fulvestrant
Method: Said test involves measuring the in vitro degradation activity of the compounds of the Table 1a.
The measurements of the degradation activities were made using a breast cancer cell ERα in cell western assay as described hereunder.
MCF7 cells (ATCC) were seeded in 384 wells microplate (collagen coated) at a concentration of 10000 cells/30 μL per well in red phenol free MEM alpha medium (invitrogen) containing 5% charcoal dextran striped FBS. The following day, 9 points serial 1:5 dilution of each compound was added to the cells in 2.5p L at final concentrations ranging from 0.3-0.0000018 μM (in table 2), or 0.1 μM for fulvestrant (using as positive control). At 4 hours post compound addition the cells were fixed by adding 25 μL of formalin (final concentration 5% formalin containing 0.1% triton) for 10 minutes at room temperature and then washed twice with PBS. Then, 50 μL of LI-COR blocking buffer containing 0.1% Triton was added to plate for 30 minutes at room temperature. LI-COR blocking buffer was removed and cells were incubated overnight at cold room with 50 μL anti-ER rabbit monoclonal antibody (Thermo scientific MA1-39540) diluted at 1:1000 in LI-COR blocking buffer containing 0.1% tween-20. Wells which were treated with blocking buffer but no antibody were used as background control. Wells were washed twice with PBS (0.1% tween-20) and incubated at 37° C. for 60 minutes in LI-COR (0.1% tween-20) containing goat anti-rabbit antibody Alexa 488 (1:1000) and Syto-64 a DNA dye (2 μM final concentration). Cells were then washed 3 times in PBS and scanned in ACUMEN explorer (TTP-Labtech). Integrated intensities in the green fluorescence and red fluorescence were measured to determine the levels of ERα and DNA respectively.
The degradation activity with respect to estrogen receptors in this test is given by the concentration which degrades 50% of the estrogen receptor (or IC50) in nM.
The % of ERα levels decrease were determined as follows: % inhibition=100*(1−(sample−fulvestrant: DMSO−fulvestrant)).

Structure (SMILES)	% Degradation At 0.3 μM [%]
Cl.O=C(O)c1ccc2c(c1)CCC(c1ccc(Cl)cc1Cl)=C2c1ccc(CC2CCN(CCCF)C2)cc1 (single isomer, unassigned; isomer 1) [Compound 36, 6-(2,4-dichlorophenyl)-5-(4-((1-(3-fluoropropyl)pyrrolidin-3-yl)methyl)phenyl)-7,8-dihydronaphthalene-2-carboxylic acid hydrochloride, Isomer 1]	92
Cl.O=C(O)c1ccc2c(c1)CCCC(c1ccc(F)cc1F)=C2c1ccc(CC2CCN(CCCF)C2)cc1 (single isomer, unassigned; isomer 1) [Compound 19, 8-(2,4-difluorophenyl)-9-(4-((1-(3-fluoropropyl)pyrrolidin-3-yl)methyl)phenyl)-6,7-dihydro-5H-benzo[7]annulene-3-carboxylic acid hydrochloride, Isomer 1]	86
COc1ccc(C2=C(c3ccc(CC4CCN(CCCF)C4)cc3)c3ccc(C(=O)O)cc3CCC2)cn1 (single isomer, unassigned; isomer 1) [Compound 14, 9-(4-((1-(3-fluoropropyl)pyrrolidin-3-yl)methyl)phenyl)-8-(6-methoxypyridin-3-yl)-6,7-dihydro-5H-benzo[7]annulene-3-carboxylic acid, Isomer 1]	88
O=C(O)C(F)(F)F.O=C(O)c1ccc2c(c1)CCCC(c1ccc(Cl)cc1Cl)=C2c1ccc(CC2(F)CCN(CCCF)C2)cc1 (single isomer, unassigned; isomer 1) [Compound 23, 8-(2,4-dichlorophenyl)-9-(4-((3-fluoro-1-(3-fluoropropyl)pyrrolidin-3-yl)methyl)phenyl)-6,7-dihydro-5H-benzo[7]annulene-3-carboxylic acid, 2,2,2-trifluoroacetic acid, Isomer 1]	69
Cl.O=C(O)c1ccc2c(c1)CCCC(c1cccc(Cl)c1)=C2c1ccc(CC2CCN(CCCF)C2)cc1 (single isomer, unassigned; isomer 1) [Compound 40, 8-(3-chlorophenyl)-9-(4-((1-(3-fluoropropyl)pyrrolidin-3-yl)methyl)phenyl)-6,7-dihydro-5H-benzo[7]annulene-3-carboxylic acid hydrochloride, Isomer 1]	73
Cl.O=C(O)c1ccc2c(c1)SCC(c1ccc(Cl)cc1Cl)=C2c1ccc(CC2CCN(CCCF)C2)cc1 (single isomer, unassigned; isomer 1) [Compound 25, 3-(2,4-dichlorophenyl)-4-(4-((1-(3-fluoropropyl)pyrrolidin-3-yl)methyl)phenyl)-2H-thiochromene-7-carboxylic acid hydrochloride, Isomer 1]	68
CC1CCc2cc(C(=O)O)ccc2C(c2ccc(CC3CCN(CCCF)C3)cc2)=C1c1ccc(C(F)(F)F)cc1 (single isomer, unassigned; isomer 2) [Compound 42, 9-(4-((1-(3-fluoropropyl)pyrrolidin-3-yl)methyl)phenyl)-7-methyl-8-(4-(trifluoromethyl)phenyl)-6,7-dihydro-5H-benzo[7]annulene-3-carboxylic acid, Isomer 2]	90
Cl.O=C(O)c1ccc2c(c1)CCCC(c1ccc(Cl)cc1)=C2c1ccc(CC2CCN(CCCF)C2)cc1 (single isomer, unassigned; isomer 1) [Compound 37, 8-(4-chlorophenyl)-9-(4-((1-(3-fluoropropyl)pyrrolidin-3-yl)methyl)phenyl)-6,7-dihydro-5H-benzo[7]annulene-3-carboxylic acid hydrochloride, Isomer 1]	93
O=C(O)C(F)(F)F.O=C(O)c1ccc2c(c1)CCCC(c1ccc(Cl)cc1Cl)=C2c1ccc(CC2(F)CCN(CCCF)C2)cc1 (single isomer, unassigned; isomer 2) [Compound 22, 8-(2,4-dichlorophenyl)-9-(4-((3-fluoro-1-(3-fluoropropyl)pyrrolidin-3-yl)methyl)phenyl)-6,7-dihydro-5H-benzo[7]annulene-3-carboxylic acid, 2,2,2-trifluoroacetic acid, Isomer 2]	48
Cc1cccc(C2=C(c3ccc(CC4CCN(CCC(F)F)C4)cc3)c3ccc(C(=O)O)cc3CCC2)c1C(F)(F)F.Cl (single isomer, unassigned; isomer 1) [Compound 34, 9-(4-((1-(3,3-difluoropropyl)pyrrolidin-3-yl)methyl)phenyl)-8-(3-methyl-2-(trifluoromethyl)phenyl)-6,7-dihydro-5H-benzo[7]annulene-3-carboxylic acid hydrochloride, Isomer 1]	85
Cl.O=C(O)c1ccc2c(c1)OCCC(c1ccc(Cl)cc1Cl)=C2c1ccc(CC2CCN(CCCF)C2)cc1 (single isomer, unassigned; isomer 1) [Compound 7, 4-(2,4-dichlorophenyl)-5-(4-((1-(3-fluoropropyl)pyrrolidin-3-yl)methyl)phenyl)-2,3-dihydrobenzo[b]oxepine-8-carboxylic acid hydrochloride, Isomer 1]	80
Cl.Oc1ccc2c(c1)CCCC(c1ccc(Cl)cc1Cl)=C2c1ccc(CC2CCN(CCC(F)F)C2)cc1 (single isomer, unassigned; isomer 1) [Compound 31, 8-(2,4-dichlorophenyl)-9-(4-((1-(3,3-difluoropropyl)pyrrolidin-3-yl)methyl)phenyl)-6,7-dihydro-5H-benzo[7]annulen-3-ol hydrochloride, Isomer 1]	73
O=C(O)c1ccc2c(c1)CCCC(c1ccc(F)cc1C(F)(F)F)=C2c1ccc(CC2CCN(CCCF)C2)cc1 (single isomer, unassigned; isomer 1) [Compound 18, 8-(4-fluoro-2-(trifluoromethyl)phenyl)-9-(4-((1-(3-fluoropropyl)pyrrolidin-3-yl)methyl)phenyl)-6,7-dihydro-5H-benzo[7]annulene-3-carboxylic acid, Isomer 1]	86
Cc1c(Cl)cccc1C1=C(c2ccc(CC3CCN(CCCF)C3)cc2)c2ccc(C(=O)O)cc2CCC1 (single isomer, unassigned; isomer 1) [Compound 15, 8-(3-chloro-2-methylphenyl)-9-(4-((1-(3-fluoropropyl)pyrrolidin-3-yl)methyl)phenyl)-6,7-dihydro-5H-benzo[7]annulene-3-carboxylic acid, Isomer 1]	88
O=C(O)c1ccc2c(c1)CCCC(c1ccccc1C(F)(F)F)=C2c1ccc(CC2CCN(CCC(F)F)C2)cc1 (centres unmarked) [Compound 33, 9-(4-((1-(3,3-difluoropropyl)pyrrolidin-3-yl)methyl)phenyl)-8-(2-(trifluoromethyl)phenyl)-6,7-dihydro-5H-benzo[7]annulene-3-carboxylic acid]	76
CC1CCc2cc(C(=O)O)ccc2C(c2ccc(CC3CCN(CCCF)C3)cc2)=C1c1ccc(C(F)(F)F)cc1 (single isomer, unassigned; isomer 1) [Compound 41, 9-(4-((1-(3-fluoropropyl)pyrrolidin-3-yl)methyl)phenyl)-7-methyl-8-(4-(trifluoromethyl)phenyl)-6,7-dihydro-5H-benzo[7]annulene-3-carboxylic acid, Isomer 1]	100
O=C(O)c1ccc2c(c1)CCCC(c1ccc(Cl)cc1Cl)=C2c1ccc(CC2CCN(CCC(F)F)C2)cc1 (single isomer, unassigned; isomer 1) [Compound 9, 8-(2,4-dichlorophenyl)-9-(4-((1-(3,3-difluoropropyl)pyrrolidin-3-yl)methyl)phenyl)-6,7-dihydro-5H-benzo[7]annulene-3-carboxylic acid, Isomer 1]	80
